Source: PMC3691140, “FGT-1 Is a Mammalian GLUT2-Like Facilitative Glucose Transporter in Caenorhabditis elegans Whose Malfunction Induces Fat Accumulation in Intestinal Cells” (PLoS ONE, 2013)

Experiments:
FGT-1 = target: T1, FGT-1 (Caenorhabditis elegans, UniProt O44827); experiment: inhibition of 3H-2-DG uptake in Xenopus oocytes; type: cell-based; settings: read-out: % inhibition at 30 mM
T1 construct: gene fdgt-1; full-length fgt-1a cDNA in pSP64T, untagged, cRNA-injected Xenopus laevis oocytes
T1 sequence (O44827 1-492 isoform O44827-2): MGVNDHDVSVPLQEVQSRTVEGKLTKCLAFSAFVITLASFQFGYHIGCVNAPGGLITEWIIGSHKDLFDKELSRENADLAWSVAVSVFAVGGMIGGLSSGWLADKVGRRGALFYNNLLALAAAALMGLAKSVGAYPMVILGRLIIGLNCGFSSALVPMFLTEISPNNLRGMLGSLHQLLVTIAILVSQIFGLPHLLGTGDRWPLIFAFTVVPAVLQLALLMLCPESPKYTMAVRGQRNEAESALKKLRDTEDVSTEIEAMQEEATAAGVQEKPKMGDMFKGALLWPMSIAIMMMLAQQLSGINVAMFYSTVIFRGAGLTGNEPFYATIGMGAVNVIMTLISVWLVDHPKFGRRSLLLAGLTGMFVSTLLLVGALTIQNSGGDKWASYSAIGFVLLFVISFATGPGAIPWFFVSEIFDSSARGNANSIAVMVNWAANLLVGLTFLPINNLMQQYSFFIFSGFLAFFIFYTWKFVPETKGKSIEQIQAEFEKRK

hGLUT1 = target: T2, hGLUT1 (Homo sapiens, UniProt P11166); experiment: 3H-2-DG uptake in cRNA-injected Xenopus oocytes; type: cell-based; settings: 10 mM 2-DG, 15 min, pH 7.6; positive control; labelled compound as tracer
T2 construct: gene SLC2A1; pSP64T-hGLUT1, cRNA-injected Xenopus laevis oocytes
T2 sequence (P11166 1-492): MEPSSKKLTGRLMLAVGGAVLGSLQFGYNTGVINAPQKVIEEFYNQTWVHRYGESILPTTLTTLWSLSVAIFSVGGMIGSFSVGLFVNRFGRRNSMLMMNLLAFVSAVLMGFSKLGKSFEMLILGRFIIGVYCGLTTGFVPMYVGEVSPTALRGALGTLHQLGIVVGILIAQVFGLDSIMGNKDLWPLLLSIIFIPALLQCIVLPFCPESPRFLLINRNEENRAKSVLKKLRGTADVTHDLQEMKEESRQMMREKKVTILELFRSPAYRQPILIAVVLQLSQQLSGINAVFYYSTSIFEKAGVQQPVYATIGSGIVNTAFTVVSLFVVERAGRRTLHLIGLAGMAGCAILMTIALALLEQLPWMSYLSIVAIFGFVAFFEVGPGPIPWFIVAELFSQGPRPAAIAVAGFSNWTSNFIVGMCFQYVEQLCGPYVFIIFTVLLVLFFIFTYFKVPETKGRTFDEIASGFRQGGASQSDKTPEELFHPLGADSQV

SMILES	inhibition at 30000 µM (FGT-1) [%]	3H-2-DG uptake in cRNA-injected Xenopus oocytes (hGLUT1)
CO[C@H]1[C@H](O)[C@@H](CO)OC(O)[C@@H]1O (stereo partly drawn) [3-O-methylglucose]	77	
OCC1(O)OC[C@@H](O)[C@@H](O)[C@@H]1O (stereo partly drawn) [D-fructose]	42	
OC[C@H]1OC(O)C[C@@H](O)[C@@H]1O (stereo partly drawn) [2-deoxy-D-glucose]		The hGLUT1 cRNA-injected oocytes were used as a positive control

Further lines, with some results ahead:

inhibition at 30000 µM (FGT-1) [%]	SMILES	3H-2-DG uptake in cRNA-injected Xenopus oocytes (hGLUT1)
33	OC[C@H]1OC(O)[C@H](O)[C@@H](O)[C@H]1O (stereo partly drawn) [D-galactose]	
79	OC[C@H]1OC(O)[C@@H](O)[C@@H](O)[C@@H]1O (stereo partly drawn) [D-mannose]	
79	OC[C@H]1OC(O)[C@H](O)[C@@H](O)[C@@H]1O (stereo partly drawn) [D-glucose]	
